The text below walks through data of US20200341000A1, “METHOD OF SCREENING COMPOUNDS FOR TREATING CNS DISORDERS” (SAGE THERAPEUTICS, INC., priority 2017, published 2020).

Assay [1] relates to GABA-evoked currents in GT1-7 cells. Nature of the assay: Patch-clamp of GABA-induced currents in GT1-7 cells, compound in the pipette electrolyte. The assay is classed as cell-based. Conditions: 100 nM in electrolyte, GABA EC20, 20 min time course. As to the method: Patch-clamp recordings were made from GT1-7 cells. The magnitude of the GABA-induced currents (IGABA) at EC20 agonists concentration were then measured, in the presence of control electrolyte or that supplemented with 100 nM ALLO, or 100 nM ORG OD 02-0 over a time course of 20 min.
In general terms: Patch clamp records ionic current or voltage across a cell membrane.

Assay [2] deals with sIPSCs in DGGCs (mutant mice). Description: Decay time of sIPSCs in DGGCs of mutant mice. Conditions: 100 nM. Type of assay: cell-based. As to the method: The ability of 100 nM ALLO to modulate the decay time of sIPSCs was compared in DGGCs from WT and S940A mice as detailed in FIG. 2.
Assay [3] deals with GT1-7 cells (co-express mPRα and GABAARs), β3 S408/9 phosphorylation. Nature of the assay: Immunoblot of β3 S408/9 phosphorylation in GT1-7 cells. The assay is classed as cell-based. Conditions: 100 nM, 15 min; n=6. The method, then: GT1-7 cells that co-express mPRα and GABAARs were used to measure the level of phosphorylation at S408/9 position of β3 subunit. Quantitative PCR analysis indicated the enrichment of the mPRα mRNA in GT1-7 cells (FIG. 15A upper, figure taken from Thomas and Pang 2012). Expression of mPRα was confirmed using western blotting. 10 and 15 μg of SDS-soluble extracts from GT1-7 cells were immunoblotted with an mPRα specific antibody (FIG. 15A lower).
GT1-7 cells were treated with 100 nM AllO or P4 for 15 min and immunoblotted with antibodies specifically recognizing β3, actin, and […] β3 subunit (pS408/9). The ratio of pS408/9 β3 subunit immunoreactivity were then normalized to levels seen in vehicle treated to controls, n=6.

For assay [4], the system named is plasma membrane GABAARs containing the α4 and β3 subunits (S408/9A mutant). Description: Biotinylation, surface/total GABAAR subunits in hippocampal slices of S408/9A mice. The assay is classed as cell-based. Conditions: 100 nM, 20 min. The method, then:
Consistent with the examples above, hippocampal slices from WT and S408/9A mice were treated for 20 min with 100 nM SGE-516 or vehicle (Con) and subjected to biotinylation followed by immunoblotting with β3 and α4 subunit antibodies. The ratio of surface/total (S/T) immunoreactivity was then normalized to levels seen in control (100%).

The subject of assay [5] is phosphorylation of S443 (α4) and S408/9 (β3). Description: Phosphorylation of GABAAR subunits in brain after IP injection. The assay is classed as in vivo, mice. Conditions: 5 mg/kg IP, 30 min after treatment. The method, then: C57/B16 mice injected with SGE-516 (5 mg/kg IP), or vehicle. 30 min after the treatment mice were sacrificed by microwave irradiation. SDS-soluble hippocampal extracts were then immunoblotted with pS443, α4, pS408/9, or β3 subunit antibodies.

Assay [6] has as its system GABAA receptor α4 subunit S443 phosphorylation. Description: Immunoblot of α4 S443 phosphorylation in hippocampal slices. Type of assay: cell-based, mice. Conditions: 100 SGE-516 for 5 min. The method, then:
Treatment of hippocampal slices with SGE-516 increased the phosphorylation of S408/9 measured using pS408/9 antibodies. To produce antibodies specific for phosphorylated S443, rabbits were injected with a synthetic peptide corresponding to residues […] of the murine α4 subunit in which the serine residue corresponding to S443 was chemically phosphorylated; […]. Hippocampal slices were treated with vehicle (Con), or SGE-516 for 20 min. Slices were immunoblotted with pS408/9, β3, or actin antibodies. The ratio of pS408/9/β3 immunoreactivity was then normalized to control slices (100%=the line).
Affinity purified pS443 was used to immunoblot varying concentrations of the immunizing phosphor-peptide (PP). pS443 was used to immunoblot extracts of hippocampal slices treated without preadsorption (0), preadsorbed with the dephosphorylated (DP), or phosphorylated antigen (PP). […] Moreover, the detection of this band was blocked by the phospho- but not the dephospho-antigen (FIG. 7B).
Hippocampal slices were treated with vehicle (Con) or 100 SGE-516 for 5 min and then immunoblotted with pS443 and α4 antibodies as indicated. pS443 immunoreactivity in hippocampal slices was increased by exposure to SGE-516, while total α4 levels were unaffected (FIG. 7C).
(In general: In western blotting, separated proteins are transferred to a membrane and probed.)

Turning to `CC(=O)[C@H]1CC[C@H]2[C@@H]3CC[C@H]4C[C@H](O)CC[C@]4(C)[C@H]3CC[C@]12C` [ALLO, Allopregnanolone], the “GABA-evoked currents (IGABA) over time” value in assay [1] is “sustained increases”. Moreover, in assay [2], the “decay time of sIPSCs” value is given as “did not increase”. For the same compound, the “S408/9 phosphorylation (pS408/9/β3) in GT1-7 cells” value in assay [3] is on record as “increase”.

Take `C[C@@]1(O)CC[C@H]2[C@H](CC[C@@H]3[C@@H]2CC[C@]2(C)[C@@H](C(=O)Cn4nccn4)CC[C@@H]32)C1` [SGE-516]: the “increase of plasma membrane levels of GABAARs containing α4 and β3 subunits” value in assay [4] was “not seen”. Besides, the “phosphorylation of S443 and S408/9 in the brains” value in assay [5] is “increased”. In assay [6], the pS443 immunoreactivity result is given as “increased” and the “total α4 levels” value is on record as “unaffected”.
